# ChEMBL document CHEMBL5154808, “Novel β-Hairpin Antimicrobial Peptides Containing the β-Turn Sequence of -RRRF- Having High Cell Selectivity and Low Incidence of Drug Resistance” (J Med Chem, 2022)
# The source made the active and inactive calls. The calls are words filed in the database; no cut-off is given here.
# Key:
# [1] = tested on: Escherichia coli; test: Antimicrobial activity against Escherichia coli ATCC 25922 assessed as reduction in bacterial growth incubated for 18 hrs in presence of 1 mM MgCl2 by CLSI protocol based broth microdilution method (reference value: 8 uM); format: functional
# [2] = tested on: Staphylococcus aureus; test: Antimicrobial activity against Staphylococcus aureus ATCC 25923 assessed as reduction of bacterial growth at 2 times MIC incubated for 18 hrs in presence of trypsin by CLSI protocol based broth microdilution method; format: functional, organism-based
# [3] = tested on: Staphylococcus aureus; test: Antimicrobial activity against Staphylococcus aureus ATCC 25923 assessed as reduction in bacterial growth incubated for 18 hrs in presence of 10% serum by CLSI protocol based broth microdilution method (reference value: 8 uM); format: functional
# [4] = tested on: Escherichia coli; test: Antimicrobial activity against Escherichia coli ATCC 25922 assessed as reduction in bacterial growth incubated for 18 hrs in presence of 4 uM FeCl3 by CLSI protocol based broth microdilution method (reference value: 8 uM); format: functional
# [5] = Acute toxicity in Kunming mouse assessed as hepatocyte hyperemia in liver at 62 mg/kg, ip by H and E staining based analysis; format: organism-based
# [6] = tested on: Staphylococcus aureus; test: Antimicrobial activity against Staphylococcus aureus ATCC 25923 assessed as reduction in bacterial growth incubated for 18 hrs in presence of 4 uM FeCl3 by CLSI protocol based broth microdilution method (reference value: 8 uM); format: functional
# [7] = tested on: Escherichia coli; test: Antimicrobial activity against Escherichia coli ATCC 25922 assessed as reduction in bacterial growth incubated for 18 hrs in presence of 150 mM NaCl by CLSI protocol based broth microdilution method (reference value: 8 uM); format: functional
# [8] = tested on: Staphylococcus aureus; test: Synergistic antibacterial activity against polymyxin B-resistant Staphylococcus aureus ATCC 25923 assessed as fractional inhibitory concentration index incubated for 18 hrs in presence of polymyxin B by checker board assay; format: functional
# [9] = tested on: Staphylococcus aureus; test: Synergistic antibacterial activity against Staphylococcus aureus ATCC 25923 assessed as fractional inhibitory concentration index incubated for 18 hrs in presence of polymyxin B by checker board assay; format: functional
# [10] = tested on: Escherichia coli; test: Antimicrobial activity against Escherichia coli ATCC 25922 assessed as reduction in bacterial growth incubated for 18 hrs in presence of 10% serum by CLSI protocol based broth microdilution method (reference value: 4 uM); format: functional
# [11] = tested on: Staphylococcus aureus; test: Antimicrobial activity against Staphylococcus aureus ATCC 25923 assessed as reduction in bacterial growth incubated for 18 hrs in presence of 4 uM FeCl3 by CLSI protocol based broth microdilution method (reference value: 4 uM); format: functional
Substance,MIC [1] [µM],Activity [2],MIC [3] [µM],MIC [4] [µM],Activity [5],MIC [6] [µM],MIC [7] [µM],fractional inhibitory concentration index (FICI) [8],fractional inhibitory concentration index (FICI) [9],MIC [10] [µM],MIC [11] [µM]
H-KWKWKRRRFKWKWK-NH2,8,Active,16,8,Toxic,8,8,–,–,–,–
H-RIRIRRRRFRIRIR-NH2,–,–,–,–,–,–,–,0.3125,0.375,4,4
